Where “and” joins values, the source holds several entries; their conditions need not be identical. Equal values may be shown once. Entries after “also recorded” stand apart in the source; their conditions may differ.
Experiments:
[1] = tested on: rats; assay: Myocardial ischemia/reperfusion by the protocol of example 3 (model not given); type: in vivo, rat; settings: antibiotics in drinking water
From the text: In the following example, methods for assaying myocardial infarction in vitro and in vivo in rats as determined by ischemia/reperfusion studies are described.
(§1) An anesthetized rat model was used for in vivo ischemia/reperfusion studies using the general surgical protocol and determination of infarct size (IS) described in “K(ATP) opener-induced delayed cardioprotection: involvement of sarcolemmal and mitochondrial K(ATP) channels, free radicals and MEK½” (Gross, E. et al., J. Mol. Cell. Cardiol. 35, 985-992, 2003), the entirety of which is incorporated herein by reference. Briefly, following anesthesia, a tracheotomy for artificial ventilation was performed, with the left common carotid artery cannulated for blood pressure and heart rate measurements. A thoracotomy was performed at the fifth intercostal space, the pericardium was excised, and a silk ligature was placed distal to the left atrial appendage that spanned to the sternal portion of the left ventricle, which included the left anterior descending coronary artery. Occlusion of the area described [area at risk (AAR)] was created by placing ends of the ligature through a polypropylene tube and fixing the snare to the epicardial surface with a hemostat. After 30 min, the hemostat was released to reperfuse the AAR. Following 2 h of reperfusion, the ligature was again occluded, and the AAR was determined by patent-blue negative staining. The heart was then excised, cross-sectioned into 4 to 5 slices, and separated into normal zone and AAR. Pieces were incubated in 1% 2,3,5-triphenyltetrazolium chloride to determine IS. The heart was then incubated overnight in 10% formaldehyde, and infarcted tissue was dissected from the AAR. IS was expressed as a percentage of the AAR (IS/AAR). Leptin (0.12 μg/kg) was administered intravenously as a bolus at 24 and 12 h before ischemia. Amino acids were administered intravenously as a bolus at 24 and 12 hours before ischemia or dissolved in the drinking water and given 48 hours before ischemia.
(§2) For in vitro ischemia/reperfusion studies, hearts were perfused retrogradely, as described previously in Baker, J. et al. (Am. J. Physiol. Heart Circ. Physiol., 2000), the entirety of which is incorporated herein by reference. Briefly, hearts were perfused with modified Krebs-Henseleit buffer (120 mM NaCl, 25 mM NaHCO3, 4.7 mM KCl, 1.2 mM KH2PO4, 1.20 mM MgSO4, 11 mM glucose, and 1.8 mM CaCl2) bubbled with 95% O2-5% CO2 for a 40-minute stabilization period and subjected to 25 minutes of global no-flow ischemia, followed by 180 minutes of reperfusion. Before use, all perfusion fluids were filtered through cellulose acetate membranes with a pore size of 5.0 μm to remove particulate matter. Hearts were kept in temperature-controlled chambers to maintain myocardial temperature at 37° C. A balloon connected to a pressure transducer was inserted into the left ventricle to monitor cardiac function. For some experiments, hearts were stabilized for 25 minutes and then perfused with vancomycin or a mixture of antibiotics for 15 minutes before ischemia/reperfusion. During the initial 40 minute reperfusion period, recovery of mechanical function was measured as left ventricular developed pressure (LVDP) under steady-state conditions and expressed as a percentage of preischemic LVDP. At the end of the 3 hour reperfusion period, hearts were processed and stained with 2,3,5-triphenyltetrazolium chloride dye for IS determination.

[2] = tested on: intestinal microbiota; assay: Fecal microbiota abundance by 16S/18S rRNA quantitative PCR; type: in vivo, rat
Description: In the following example, methods for quantifying microbiota abundance in rat feces are described. Fresh fecal pellets were obtained from each rat prior to (day 0) and at day 6 to 7 post treatment. Pellets were homogenized in 1 ml PBS. 200 μl of homogenate was used for microbial DNA isolation using a QIAamp DNA Stool Mini Kit (Qiagen, Valencia, Calif.). Isolated DNA samples were subjected to quantitative PCR using an iCycler (Bio-Rad, Hercules, Calif.) for microbial population enumeration. PCR reaction mixture consisted of 50% iQ SYBR Green Supermix (Bio-Rad), 0.4 μM forward and reverse primers, and 3.8% template solution in RNase/DNase free water. Primer sets specific for 16s and 18s rRNA genes of particular microbial phylum, class, genus, and species (M. smithii and L. plantarum) along with 20 reaction temperature and reference strains are detailed in FIG. 2 and Table 1.

[3] = tested on: leptin; assay: Plasma cytokine analysis (leptin); type: in vivo, rat; settings: vancomycin in drinking water, d 6 vs d 0
Description: The concentration of cytokines in blood of rats treated with vancomycin was quantified to identify antibiotic-induced changes. […] Blood samples were kept on ice for 30 min and then centrifuged at 1000 g for 10 min at 4° C. to obtain plasma. Plasma samples were then analyzed to determine the concentration of 23 cytokines (Eve Technologies, Calgary, AB, Canada). Antibiotic was administered continuously via drinking water as described in example 1.

[4] = tested on: isolated hearts; assay: In vitro global ischemia/reperfusion of isolated perfused hearts, infarct size and recovery of LVDP; parameters: species or system rat
Description: as §2

[5] = tested on: Dahl S rats; assay: In vivo regional myocardial ischemia/reperfusion, infarct size (IS/AAR); parameters: species or system rat
From the text: as §1

CN[C@H](CC(C)C)C(=O)N[C@H]1C(=O)N[C@@H](CC(N)=O)C(=O)N[C@H]2C(=O)N[C@H]3C(=O)N[C@H](C(=O)N[C@H](C(=O)O)c4cc(O)cc(O)c4-c4cc3ccc4O)[C@H](O)c3ccc(c(Cl)c3)Oc3cc2cc(c3O[C@@H]2O[C@H](CO)[C@@H](O)[C@H](O)[C@H]2O[C@H]2C[C@](C)(N)[C@H](O)[C@H](C)O2)Oc2ccc(cc2Cl)[C@H]1O [vancomycin, Vancomycin]
response of susceptibility to ischemia/reperfusion injury ([1]; Dahl S rats): sensitive | response of susceptibility to ischemia/reperfusion injury ([1]; Sprague Dawley rats): intermediate response | response of susceptibility to ischemia/reperfusion injury ([1]; WAG/RijCmcr rats): resistant | total bacterial/microbial numbers in feces ([2]; oral antibiotic in drinking water, Dahl S rats): reduced total bacterial numbers; also recorded: reduced total microbial numbers; also recorded: reduce overall bacterial numbers | change of Bacilli abundance in feces ([2]; oral antibiotic treatment): increased two fold | change of Lactobacillales abundance in feces ([2]; oral antibiotic treatment): increase abundance | change of Proteobacteria abundance in feces ([2]; oral antibiotic treatment): increase abundance | increase of Proteobacteria in feces ([2]; oral antibiotic treatment): 120 fold | decrease in circulating leptin [3]: 38±4% and 38% | effect on IS when added directly to coronary perfusate ([4]; 1 μM in perfusate, in vitro ischemia/reperfusion): no reduction in IS; also recorded: no effect on severity of myocardial infarction; also recorded: did not reduce IS in vitro | effect on infarct size of isolated hearts ([4]; antibiotic added to the drinking water, then excluded from coronary circulation): reduced IS | decrease in IS ([4]; antibiotic in drinking water, then excluded from coronary perfusate, in vitro ischemia/reperfusion): 29% | time after treatment ceased at which cardioprotection was lost ([4]; vancomycin in drinking water): 3 days | time of treatment within which cardioprotection was established ([4]; vancomycin in drinking water): ≤ 2 days | reduction in myocardial IS ([5]; Dahl S rats, antibiotic in drinking water 7 d, in vivo regional ischemia/reperfusion): ~27% | effect on infarct size in vivo ([5]; antibiotic added to the drinking water): reduced infarct size (IS) in vivo | decrease in infarct size ([5]; vancomycin 15 mg/kg/day for 72 hours, thrombopoietin i.v. 15 minutes prior to ischemia): 28%

Source: patent US20130052172A1, “METHODS FOR DIAGNOSING AND TREATING CARDIAC DEFECTS” (priority 2011, published 2013)
